Values joined by “and” are separate entries in the source; they are usually repeats but may differ in a detail not shown here. Equal values may be shown once.
What was measured:
Test in all cases: biochemical
Assay type in all cases: biochemical
various kinases [1] = target: T1, various kinases (Homo sapiens, UniProt O00141); conditions: kinase SGK (SGK1); ZLYTE
T1 sequence (O00141 1-431): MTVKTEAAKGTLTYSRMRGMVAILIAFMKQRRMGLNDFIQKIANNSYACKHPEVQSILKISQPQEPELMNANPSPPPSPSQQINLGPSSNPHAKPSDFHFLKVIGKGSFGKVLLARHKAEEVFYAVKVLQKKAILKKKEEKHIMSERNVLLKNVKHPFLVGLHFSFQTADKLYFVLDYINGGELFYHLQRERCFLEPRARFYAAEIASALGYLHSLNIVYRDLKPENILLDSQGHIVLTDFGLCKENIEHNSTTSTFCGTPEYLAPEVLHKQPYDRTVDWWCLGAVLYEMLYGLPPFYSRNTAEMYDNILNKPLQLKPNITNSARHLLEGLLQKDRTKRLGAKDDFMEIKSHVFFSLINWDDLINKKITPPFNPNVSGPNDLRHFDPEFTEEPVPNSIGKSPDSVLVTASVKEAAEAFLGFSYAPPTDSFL

various kinases [2] = target: various kinases (Homo sapiens, UniProt O15264); conditions: MAPK13 (p38 delta)
various kinases (Homo sapiens, UniProt O15264), sequence (O15264 whole entry): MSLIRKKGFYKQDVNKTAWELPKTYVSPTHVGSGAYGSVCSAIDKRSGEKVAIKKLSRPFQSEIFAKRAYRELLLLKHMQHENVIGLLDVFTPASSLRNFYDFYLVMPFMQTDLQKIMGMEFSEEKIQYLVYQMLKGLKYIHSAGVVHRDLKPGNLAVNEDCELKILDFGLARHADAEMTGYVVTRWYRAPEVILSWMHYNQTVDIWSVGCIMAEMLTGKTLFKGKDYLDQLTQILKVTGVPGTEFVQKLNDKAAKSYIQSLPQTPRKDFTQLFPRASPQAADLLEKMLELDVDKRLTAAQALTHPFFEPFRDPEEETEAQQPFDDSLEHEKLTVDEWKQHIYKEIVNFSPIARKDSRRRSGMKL

various kinases [3] = target: various kinases (Homo sapiens, UniProt P00533); conditions: EGFR (ErbB1)
various kinases [4] = target: various kinases (Homo sapiens, UniProt P00533, G719S); conditions: EGFR (ErbB1) G719S
various kinases [5] = target: various kinases (Homo sapiens, UniProt P05771); conditions: kinase PRKCB1 (PKC beta I); ZLYTE
various kinases (Homo sapiens, UniProt P05771), sequence (P05771 whole entry): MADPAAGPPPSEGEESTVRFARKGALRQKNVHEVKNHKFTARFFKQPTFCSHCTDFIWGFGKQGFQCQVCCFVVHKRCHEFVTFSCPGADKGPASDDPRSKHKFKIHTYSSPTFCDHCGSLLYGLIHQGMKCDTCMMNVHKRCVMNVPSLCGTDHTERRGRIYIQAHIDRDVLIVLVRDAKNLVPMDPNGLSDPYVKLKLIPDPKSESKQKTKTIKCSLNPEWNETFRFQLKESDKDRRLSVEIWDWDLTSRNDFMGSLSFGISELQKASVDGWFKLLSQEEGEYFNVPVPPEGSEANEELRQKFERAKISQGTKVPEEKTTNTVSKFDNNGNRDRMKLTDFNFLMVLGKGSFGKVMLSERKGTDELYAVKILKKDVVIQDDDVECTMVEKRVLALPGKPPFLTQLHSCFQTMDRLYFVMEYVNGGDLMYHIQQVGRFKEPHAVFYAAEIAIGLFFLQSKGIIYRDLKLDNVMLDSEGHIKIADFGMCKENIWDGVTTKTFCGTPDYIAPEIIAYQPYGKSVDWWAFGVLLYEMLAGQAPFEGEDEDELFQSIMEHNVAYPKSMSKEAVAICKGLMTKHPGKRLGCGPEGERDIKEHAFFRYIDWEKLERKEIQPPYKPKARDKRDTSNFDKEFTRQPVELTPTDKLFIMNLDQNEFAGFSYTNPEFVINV

various kinases [6] = target: various kinases (Homo sapiens, UniProt P11309); conditions: PIM1
various kinases (Homo sapiens, UniProt P11309), sequence (P11309 whole entry): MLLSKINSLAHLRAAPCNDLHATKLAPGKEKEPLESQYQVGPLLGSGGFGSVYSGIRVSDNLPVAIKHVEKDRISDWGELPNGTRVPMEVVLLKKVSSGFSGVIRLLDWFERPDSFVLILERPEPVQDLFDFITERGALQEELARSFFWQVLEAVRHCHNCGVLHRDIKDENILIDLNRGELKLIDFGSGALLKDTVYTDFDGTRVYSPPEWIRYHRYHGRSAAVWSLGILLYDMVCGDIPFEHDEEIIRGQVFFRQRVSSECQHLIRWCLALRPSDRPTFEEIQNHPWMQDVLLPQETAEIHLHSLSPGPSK

various kinases [7] = target: various kinases (Homo sapiens, UniProt P14616); conditions: INSRR (IRR)
various kinases [8] = target: various kinases (Homo sapiens, UniProt P35968); conditions: KDR (VEGFR2)
various kinases [9] = target: T2, various kinases (Homo sapiens, UniProt P41743); conditions: kinase PRKCI (PKC iota); ZLYTE
T2 sequence (P41743 1-596): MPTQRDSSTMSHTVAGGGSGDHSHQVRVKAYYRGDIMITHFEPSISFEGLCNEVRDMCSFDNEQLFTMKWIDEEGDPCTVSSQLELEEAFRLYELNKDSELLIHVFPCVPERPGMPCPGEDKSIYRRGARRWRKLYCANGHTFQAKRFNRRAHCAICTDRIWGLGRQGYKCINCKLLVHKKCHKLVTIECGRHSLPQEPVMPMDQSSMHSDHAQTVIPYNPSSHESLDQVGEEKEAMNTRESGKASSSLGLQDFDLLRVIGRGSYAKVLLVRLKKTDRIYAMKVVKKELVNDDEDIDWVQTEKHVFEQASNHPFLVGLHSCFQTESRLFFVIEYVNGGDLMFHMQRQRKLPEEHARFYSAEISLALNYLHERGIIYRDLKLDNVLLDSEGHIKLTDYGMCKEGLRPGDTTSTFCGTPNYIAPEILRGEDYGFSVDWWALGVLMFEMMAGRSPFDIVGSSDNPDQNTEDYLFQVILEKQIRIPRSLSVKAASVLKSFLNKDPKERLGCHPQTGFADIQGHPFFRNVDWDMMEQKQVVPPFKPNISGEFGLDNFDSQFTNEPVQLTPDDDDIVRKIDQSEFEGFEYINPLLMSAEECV

various kinases [10] = target: various kinases (Homo sapiens, UniProt P52564); conditions: MAP2K6 (MKK6)
various kinases (Homo sapiens, UniProt P52564), sequence (P52564 whole entry): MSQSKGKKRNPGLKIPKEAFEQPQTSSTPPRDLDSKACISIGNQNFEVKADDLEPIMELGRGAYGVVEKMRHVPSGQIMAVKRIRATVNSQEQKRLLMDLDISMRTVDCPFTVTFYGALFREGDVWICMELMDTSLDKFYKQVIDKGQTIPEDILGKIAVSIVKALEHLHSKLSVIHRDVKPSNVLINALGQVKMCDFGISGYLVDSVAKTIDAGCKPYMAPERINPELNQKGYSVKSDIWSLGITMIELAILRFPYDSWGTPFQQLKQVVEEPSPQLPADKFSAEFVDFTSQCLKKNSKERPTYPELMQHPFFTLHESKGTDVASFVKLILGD

various kinases [11] = target: various kinases (Homo sapiens, UniProt P54753); conditions: EPHB3
various kinases [12] = target: various kinases (Homo sapiens, UniProt Q00535)
various kinases (Homo sapiens, UniProt Q00535), sequence (Q00535 whole entry): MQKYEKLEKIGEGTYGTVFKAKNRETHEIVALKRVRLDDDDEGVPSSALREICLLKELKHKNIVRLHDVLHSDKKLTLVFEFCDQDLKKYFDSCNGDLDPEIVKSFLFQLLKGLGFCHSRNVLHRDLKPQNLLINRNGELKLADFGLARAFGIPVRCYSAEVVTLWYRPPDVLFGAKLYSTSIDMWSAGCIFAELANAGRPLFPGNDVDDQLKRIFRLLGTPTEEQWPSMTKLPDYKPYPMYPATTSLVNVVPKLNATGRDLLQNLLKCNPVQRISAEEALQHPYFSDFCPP

various kinases [13] = target: various kinases (Homo sapiens, UniProt Q04759); conditions: kinase PRKCQ (PKC theta); ZLYTE
various kinases (Homo sapiens, UniProt Q04759), sequence (Q04759 whole entry): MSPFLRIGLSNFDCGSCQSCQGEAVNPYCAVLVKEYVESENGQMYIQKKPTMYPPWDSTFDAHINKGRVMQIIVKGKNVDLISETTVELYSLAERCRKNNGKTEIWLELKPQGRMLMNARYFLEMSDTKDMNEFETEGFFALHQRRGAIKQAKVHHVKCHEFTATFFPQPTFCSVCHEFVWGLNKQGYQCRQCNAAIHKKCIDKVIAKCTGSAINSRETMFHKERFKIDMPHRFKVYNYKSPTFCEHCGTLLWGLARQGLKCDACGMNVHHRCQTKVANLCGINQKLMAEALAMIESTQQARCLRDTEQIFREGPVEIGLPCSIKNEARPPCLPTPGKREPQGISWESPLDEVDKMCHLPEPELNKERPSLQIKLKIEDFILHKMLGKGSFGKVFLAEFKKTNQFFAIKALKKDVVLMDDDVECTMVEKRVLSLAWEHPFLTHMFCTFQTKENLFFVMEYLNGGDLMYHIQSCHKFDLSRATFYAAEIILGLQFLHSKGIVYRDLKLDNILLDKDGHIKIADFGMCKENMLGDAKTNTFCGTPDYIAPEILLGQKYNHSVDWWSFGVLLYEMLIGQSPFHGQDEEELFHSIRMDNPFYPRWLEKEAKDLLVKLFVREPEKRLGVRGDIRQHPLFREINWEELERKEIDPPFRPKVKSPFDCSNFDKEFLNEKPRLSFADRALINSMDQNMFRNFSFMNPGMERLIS

various kinases [14] = target: T3, various kinases (Homo sapiens, UniProt Q13976); conditions: kinase PRKG1; ZLYTE
T3 sequence (Q13976 1-671): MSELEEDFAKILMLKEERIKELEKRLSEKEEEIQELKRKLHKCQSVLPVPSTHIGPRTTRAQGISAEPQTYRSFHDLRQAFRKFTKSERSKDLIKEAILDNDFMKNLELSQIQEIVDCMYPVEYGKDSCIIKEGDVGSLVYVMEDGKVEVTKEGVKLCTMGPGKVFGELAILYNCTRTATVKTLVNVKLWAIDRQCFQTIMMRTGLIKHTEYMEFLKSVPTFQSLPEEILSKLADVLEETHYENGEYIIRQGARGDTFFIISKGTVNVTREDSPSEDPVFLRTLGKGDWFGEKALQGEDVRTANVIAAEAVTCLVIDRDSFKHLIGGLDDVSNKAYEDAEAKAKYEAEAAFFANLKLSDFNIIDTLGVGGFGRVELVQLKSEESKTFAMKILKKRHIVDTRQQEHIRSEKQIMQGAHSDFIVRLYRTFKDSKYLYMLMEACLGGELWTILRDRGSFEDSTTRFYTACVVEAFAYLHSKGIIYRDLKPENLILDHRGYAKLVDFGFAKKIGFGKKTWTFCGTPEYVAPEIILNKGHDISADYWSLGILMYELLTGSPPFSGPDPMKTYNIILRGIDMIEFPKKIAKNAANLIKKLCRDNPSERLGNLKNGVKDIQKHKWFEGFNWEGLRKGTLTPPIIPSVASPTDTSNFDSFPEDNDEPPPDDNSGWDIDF

various kinases [15] = target: various kinases (Homo sapiens, UniProt Q9H792); conditions: PEAK1
various kinases (Homo sapiens, UniProt Q9H792), sequence (Q9H792 whole entry): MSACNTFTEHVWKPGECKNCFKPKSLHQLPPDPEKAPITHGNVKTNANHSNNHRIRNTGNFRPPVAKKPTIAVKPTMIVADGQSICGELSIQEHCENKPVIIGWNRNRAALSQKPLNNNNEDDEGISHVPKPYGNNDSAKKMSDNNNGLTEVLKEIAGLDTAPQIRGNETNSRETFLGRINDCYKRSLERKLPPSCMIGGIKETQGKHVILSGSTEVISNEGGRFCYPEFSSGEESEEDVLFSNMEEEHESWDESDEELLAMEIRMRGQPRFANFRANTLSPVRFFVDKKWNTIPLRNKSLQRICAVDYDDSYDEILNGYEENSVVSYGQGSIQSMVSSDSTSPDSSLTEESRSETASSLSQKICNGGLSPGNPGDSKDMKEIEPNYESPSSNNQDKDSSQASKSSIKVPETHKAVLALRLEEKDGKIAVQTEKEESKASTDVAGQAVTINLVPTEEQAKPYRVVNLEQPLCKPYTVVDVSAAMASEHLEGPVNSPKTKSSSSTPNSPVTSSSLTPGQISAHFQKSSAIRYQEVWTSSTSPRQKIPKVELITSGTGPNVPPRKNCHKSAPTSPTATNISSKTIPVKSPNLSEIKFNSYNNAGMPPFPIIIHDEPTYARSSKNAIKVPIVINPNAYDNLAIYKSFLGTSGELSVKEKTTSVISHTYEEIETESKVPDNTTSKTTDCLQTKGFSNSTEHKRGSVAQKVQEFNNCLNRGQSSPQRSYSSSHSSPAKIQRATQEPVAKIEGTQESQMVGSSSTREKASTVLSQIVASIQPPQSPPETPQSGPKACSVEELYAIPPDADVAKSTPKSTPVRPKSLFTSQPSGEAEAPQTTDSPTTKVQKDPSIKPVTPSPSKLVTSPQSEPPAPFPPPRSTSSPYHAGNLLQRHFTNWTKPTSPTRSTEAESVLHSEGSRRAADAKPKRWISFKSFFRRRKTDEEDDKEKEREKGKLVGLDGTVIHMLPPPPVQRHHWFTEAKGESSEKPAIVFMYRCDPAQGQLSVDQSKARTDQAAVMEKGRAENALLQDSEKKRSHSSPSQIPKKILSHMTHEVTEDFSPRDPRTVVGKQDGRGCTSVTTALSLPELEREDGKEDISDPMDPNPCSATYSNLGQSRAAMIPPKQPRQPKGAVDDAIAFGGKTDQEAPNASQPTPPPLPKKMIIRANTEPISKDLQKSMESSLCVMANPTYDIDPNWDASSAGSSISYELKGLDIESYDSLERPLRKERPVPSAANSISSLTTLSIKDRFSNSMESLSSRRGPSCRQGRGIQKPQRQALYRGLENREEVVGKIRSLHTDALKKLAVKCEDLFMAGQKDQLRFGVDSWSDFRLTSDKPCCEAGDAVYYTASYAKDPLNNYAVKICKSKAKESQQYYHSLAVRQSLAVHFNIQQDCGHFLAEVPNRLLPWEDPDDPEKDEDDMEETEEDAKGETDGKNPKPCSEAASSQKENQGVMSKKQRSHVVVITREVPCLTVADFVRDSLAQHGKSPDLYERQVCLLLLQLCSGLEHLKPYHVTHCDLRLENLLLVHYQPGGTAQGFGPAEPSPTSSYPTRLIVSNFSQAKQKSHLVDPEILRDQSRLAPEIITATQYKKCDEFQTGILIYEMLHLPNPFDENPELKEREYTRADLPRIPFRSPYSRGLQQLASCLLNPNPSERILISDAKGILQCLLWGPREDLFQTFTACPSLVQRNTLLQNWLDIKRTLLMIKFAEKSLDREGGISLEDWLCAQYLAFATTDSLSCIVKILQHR

various kinases [16] = target: various kinases (Homo sapiens, UniProt Q9Y6E0); conditions: kinase STK24 (MST3); ZLYTE
various kinases (Homo sapiens, UniProt Q9Y6E0), sequence (Q9Y6E0 whole entry): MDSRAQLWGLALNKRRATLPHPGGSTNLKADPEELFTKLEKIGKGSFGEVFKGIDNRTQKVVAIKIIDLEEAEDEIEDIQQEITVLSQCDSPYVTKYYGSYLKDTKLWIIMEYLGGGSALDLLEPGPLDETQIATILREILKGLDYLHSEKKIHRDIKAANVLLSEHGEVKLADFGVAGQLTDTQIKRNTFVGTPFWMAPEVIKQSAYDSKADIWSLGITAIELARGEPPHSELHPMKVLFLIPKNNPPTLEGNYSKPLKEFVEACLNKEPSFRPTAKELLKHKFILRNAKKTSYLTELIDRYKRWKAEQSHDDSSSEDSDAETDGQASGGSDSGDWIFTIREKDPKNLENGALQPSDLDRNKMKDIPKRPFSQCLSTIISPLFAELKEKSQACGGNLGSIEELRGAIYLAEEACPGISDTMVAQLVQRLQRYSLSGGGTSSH
Throughout, for % Inhibition Average: test concentration or dose not given here.
Throughout, for % Inhibition Duplicate #1: test concentration or dose not given here.
Throughout, for % Inhibition Duplicate #2: test concentration or dose not given here.

COc1ccc2c(c1)[C@]1(C[C@H]1c1ccc3c(/C=C/c4ccc(CN5C[C@@H](C)O[C@@H](C)C5)cc4)n[nH]c3c1)C(=O)N2 [CFI-400945]
% Inhibition Average (various kinases [1]): 8% | % Inhibition Duplicate #1 (various kinases [1]): 9% | % Inhibition Duplicate #2 (various kinases [1]): 7% | % Inhibition (various kinases [2]): 1% and 4% | % Inhibition (various kinases [3]): 1% and 7% | % Inhibition (various kinases [4]): 5% | % Inhibition Average (various kinases [5]): 17% | % Inhibition Duplicate #1 (various kinases [5]): 18% | % Inhibition Duplicate #2 (various kinases [5]): 16% | % Inhibition (various kinases [6]): 2% and 3% | % Inhibition (various kinases [7]): 4% and 6% | % Inhibition (various kinases [8]): 16% and 15% | % Inhibition Average (various kinases [9]): 6% | % Inhibition Duplicate #1 (various kinases [9]): 0% | % Inhibition Duplicate #2 (various kinases [9]): 11% | % Inhibition (various kinases [10]): 4% and -2% | % Inhibition (various kinases [11]): 3% and 2% | % Inhibition (various kinases [12]; CDK5/p25): 6% and 8% | % Inhibition (various kinases [12]; CDK5/p35): 2% and 3% | % Inhibition Average (various kinases [13]): 7% | % Inhibition Duplicate #1 (various kinases [13]): 1% | % Inhibition Duplicate #2 (various kinases [13]): 13% | % Inhibition Average (various kinases [14]): 5% | % Inhibition Duplicate #1 (various kinases [14]): 6% | % Inhibition Duplicate #2 (various kinases [14]): 4% | % Inhibition (various kinases [15]): 5% and 11% | % Inhibition Average (various kinases [16]): 7% | % Inhibition Duplicate #1 (various kinases [16]): 7% | % Inhibition Duplicate #2 (various kinases [16]): 7%
